Results reported in US10308620B2, “Muscarinic M1 receptor positive allosteric modulators” (SUVEN LIFE SCIENCES LIMITED, priority 2015, dated 2019).
pEC50: −log10 of the molar value. Where a name gives a salt, the structure may show the parent alone.

These compounds were tested against recombinant human Muscarinic M1 receptor (Homo sapiens (Human), UniProt P11229) (assay: Allosteric potency EC50, CHO cells with pCRE-Luc reporter, in presence of EC20 of acetylcholine). Settings: 4 hours.
recombinant human Muscarinic M1 receptor, sequence (P11229 whole entry): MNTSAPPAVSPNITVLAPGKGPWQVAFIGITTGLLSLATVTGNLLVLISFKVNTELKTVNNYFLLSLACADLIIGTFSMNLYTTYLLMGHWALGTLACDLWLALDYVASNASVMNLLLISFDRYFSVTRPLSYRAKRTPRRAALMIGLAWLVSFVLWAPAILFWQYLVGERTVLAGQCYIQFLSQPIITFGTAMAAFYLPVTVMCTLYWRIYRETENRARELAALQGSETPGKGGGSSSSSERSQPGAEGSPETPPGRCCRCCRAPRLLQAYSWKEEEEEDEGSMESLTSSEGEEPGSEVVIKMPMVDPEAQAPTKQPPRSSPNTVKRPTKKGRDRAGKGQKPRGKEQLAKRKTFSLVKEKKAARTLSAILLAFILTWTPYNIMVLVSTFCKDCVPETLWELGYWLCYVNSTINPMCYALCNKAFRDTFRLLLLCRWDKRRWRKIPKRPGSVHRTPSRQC
Assay type: cell-based
Method: Determination of Allosteric Potency EC50 Values for Muscarinic M1 Receptor:
A stable CHO cell line expressing recombinant human Muscarinic M1 receptor and pCRE-Luc reporter system was used for cell-based assay. The assay offers a non-radioactive based approach to determine binding of a compound to GPCRs. In this specific assay, the level of intracellular cyclic AMP which is modulated by activation or inhibition of the receptor is measured. The recombinant cells harbor luciferase reporter gene under the control of cAMP response element.
The above cells were grown in 96 well clear bottom white plates in Hams F12 medium containing 10% fetal bovine serum (FBS). Prior to the addition of compounds or standard agonist, cells were serum starved overnight. Increasing concentrations of test compounds were added along with EC20 of acetylcholine in OptiMEM medium to the cells. The incubation was continued at 37° C. in CO2 incubator for 4 hours. Medium was removed and cells were washed with phosphate buffered saline. The cells were lysed and luciferase activity was measured in a Luminometer. Luminescence units were plotted against the compound concentrations using Graphpad software. EC50 values of the compounds were defined as the concentration required in stimulating the luciferase activity by 50% in presence of EC20 of acetylcholine.
`O=C(N[C@H]1CCCC[C@@H]1O)C1=CN(Cc2ccc(F)cc2)c2ccccc2O1` [Example 13, N-(cis-1S,2S-2-Hydroxycyclohexyl)-4-(4-fluorobenzyl)-4H-benzo[1,4]oxazine-2-carboxamide] showed a pEC50 of 6.04. With `O=C(N[C@H]1CCCC[C@@H]1O)C1=CN(Cc2ccc(Cl)cc2Cl)c2ccccc2O1` [Example 28, N-(cis-1S, 2S-2-Hydroxycyclohexyl)-4-(2,4-dichlorobenzyl)-4H-benzo[1,4]oxazine-2-carboxamide] the pEC50 was 6.60. `O=C(N[C@H]1CCCC[C@@H]1O)C1=CN(Cc2ccccn2)c2c(F)cccc2O1` [Example 56, N-(cis-1S,2S-2-Hydroxycyclohexyl)-4-(pyridin-2-ylmethyl)-5-fluoro-4H-benzo[1,4]oxazine-2-carboxamide] showed a pEC50 of 5.83. In the case of `O=C(N[C@H]1CCCC[C@@H]1O)C1=CN(Cc2ccc(Cl)nc2)c2ccccc2[S+]1[O-]` (stereo partly drawn) [Example 97, N-(cis-1S, 2S-2-Hydroxycyclohexyl)-4-{2-chloropyridin-5-ylmethyl}-1-oxo-4H-benzo[1,4]thiazine-2-carboxamide], the pEC50 was 5.97. With `O=C(Nc1ccccc1CO)C1=CN(Cc2ccccc2F)c2ccccc2O1` [Example 43, N-(2-Hydroxymethylphenyl)-4-(2-fluorobenzyl)-4H-benzo[1,4]oxazine-2-carboxamide] the pEC50 was 5.79. `O=C(N[C@H]1CCCC[C@@H]1O)C1=CN(Cc2ccccc2F)c2c(F)cccc2O1` [Example 55, N-(cis-1S,2S-2-Hydroxycyclohexyl)-4-(2-fluorobenzyl)-5-fluoro-4H-benzo[1,4]oxazine-2-carboxamide] showed a pEC50 of 6.08. Work on `O=C(N[C@H]1CCCC[C@@H]1O)C1=CN(Cc2cccc(F)c2F)c2ccccc2[S+]1[O-]` (stereo partly drawn) [Example 93, N-(cis-1S,2S-2-Hydroxycyclohexyl)-4-(2,3-difluorobenzyl)-1-oxo-4H-benzo[1,4]thiazine-2-carboxamide] yielded a pEC50 of 6.04. `O=C(N[C@@H]1CCC[C@H]1O)C1=CN(Cc2cccc(F)c2F)c2cccc(F)c2O1` [Example 42, N-(trans-1R,2R-2-Hydroxycyclopentyl)-4-(2,3-difluorobenzyl)-8-fluoro-4H-benzo[1,4]oxazine-2-carboxamide] showed a pEC50 of 6.16. `Cc1cc(-c2cc(CN3C=C(C(=O)N[C@H]4CCCC[C@@H]4O)Oc4ccccc43)ccn2)cnc1F` [Example 58, N-(cis-1S,2S-2-Hydroxycyclohexyl)-4-(6′-fluoro-5′-methyl-[2,3′]bipyridinyl-4-ylmethyl)-4H-benzo[1,4]oxazine-2-carboxamide] gave a pEC50 of 5.87. For `O=C(N[C@H]1CCCC[C@@H]1O)C1=CN(Cc2ccncc2)c2ccccc2S1` [Example 90, N-(cis-1S,2S-2-Hydroxycyclohexyl)-4-{pyridin-4-ylmethyl}-4H-benzo[1,4]thiazine-2-carboxamide], the pEC50 was 6.22. Compound `O=C(N[C@H]1CCCC[C@@H]1O)C1=CN(Cc2cccc(F)c2)c2ccccc2S1` [Example 86, N-(cis-1S,2S-2-Hydroxycyclohexyl)-4-(3-fluorobenzyl)-4H-benzo[1,4]thiazine-2-carboxamide] has a pEC50 of 6.03. For `O=C(N[C@H]1CCCC[C@@H]1O)C1=CN(Cc2cccc(F)c2)c2ccccc2[S+]1[O-]` (stereo partly drawn) [Example 95, N-(cis-1S,2S-2-Hydroxycyclohexyl)-4-{3-fluorobenzyl}-1-oxo-4H-benzo[1,4]thiazine-2-carboxamide], the pEC50 was 5.82. `O=C(Nc1ccccc1CO)C1=CN(Cc2cccc(F)c2F)c2cccc(F)c2O1` [Example 44, N-(2-Hydroxymethylphenyl)-4-(2,3-difluorobenzyl)-8-fluoro-4H-benzo[1,4]oxazine-2-carboxamide] gave a pEC50 of 5.89. `COc1ccc(CN2C=C(C(=O)NCC(C)(C)O)Oc3ccccc32)cn1` [Example 16, N-(2-Hydroxy-2-methylpropyl)-4-(2-methoxypyridin-5-ylmethyl)-4H-benzo[1,4]oxazine-2-carboxamide] was tested, and the pEC50 was 5.87. Compound `COc1cccc(CN2C=C(C(=O)NCC(C)(C)O)Oc3ccccc32)c1` [Example 10, N-(2-Hydroxy-2-methylpropyl)-4-(3-methoxybenzyl)-4H-benzo[1,4]oxazine-2-carboxamide] has a pEC50 of 5.81. For `O=C(NC1CCNCC1F)C1=CN(Cc2cccc(F)c2F)c2cccc(F)c2O1` (centres unmarked) [Example 74, N-(3-Fluoropiperidin-4-yl)-4-(2,3-difluorobenzyl)-8-fluoro-4H-benzo[1,4]oxazine-2-carboxamide hydrochloride], the pEC50 was 5.68. Work on `Cc1ncccc1CN1C=C(C(=O)N[C@H]2CCCC[C@@H]2O)Oc2ccccc21` [Example 27, N-(cis-1S,2S-2-Hydroxycyclohexyl)-4-(2-methylpyridin-3-ylmethyl)-4H-benzo[1,4]oxazine-2-carboxamide] yielded a pEC50 of 5.86. `O=C(N[C@H]1CCCC[C@@H]1O)C1=CN(Cc2ccc(F)cc2)c2ccccc2S1` [Example 89, N-(cis-1S,2S-2-Hydroxycyclohexyl)-4-{4-fluorobenzyl}-4H-benzo[1,4]thiazine-2-carboxamide] showed a pEC50 of 6.34. `O=C(NC1CCNCC1O)C1=CN(Cc2ccccc2F)c2ccccc2O1` (centres unmarked) [Example 76, N-(3-Hydroxypiperidin-4-yl)-4-(2-fluorobenzyl)-4H-benzo[1,4]oxazine-2-carboxamide trifluoroacetate] gave a pEC50 of 6.39. `O=C(Nc1ccccc1CO)C1=CN(Cc2cccc(F)c2F)c2ccccc2O1` [Example 45, N-(2-Hydroxymethylphenyl)-4-(2,3-difluorobenzyl)-4H-benzo[1,4]oxazine-2-carboxamide] gave a pEC50 of 5.80. Work on `O=C(N[C@H]1CCCC[C@@H]1O)C1=CN(Cc2ccnc(Cl)c2)c2ccccc2O1` [Example 24, N-(cis-1S,2S-2-Hydroxycyclohexyl)-4-(2-chloropyridin-4-ylmethyl)-4H-benzo[1,4]oxazine-2-carboxamide] yielded a pEC50 of 6.29. Work on `CC(C)(O)CNC(=O)C1=CN(Cc2cccc(F)c2)c2ccccc2O1` [Example 8, N-(2-Hydroxy-2-methylpropyl)-4-(3-fluorobenzyl)-4H-benzo[1,4]oxazine-2-carboxamide] yielded a pEC50 of 5.54. With `O=C(N[C@H]1CCCC[C@@H]1O)C1=CN(Cc2ccnc(Cl)c2)c2cccc(F)c2O1` [Example 54, N-(cis-1S,2S-2-Hydroxycyclohexyl)-4-(2-chloropyridin-4-ylmethyl)-8-fluoro-4H-benzo[1,4]oxazine-2-carboxamide] the pEC50 was 7.06. Compound `O=C(N[C@H]1CCCC[C@@H]1O)C1=CN(Cc2ccccc2F)c2cccc(F)c2O1` [Example 2, N-(cis-1S,2S-2-Hydroxycyclohexyl)-4-(2-fluorobenzyl)-8-fluoro-4H-benzo[1,4]oxazine-2-carboxamide] has a pEC50 of 6.87. In the case of `O=C(N[C@H]1CCCC[C@@H]1O)C1=CN(Cc2ccccc2)c2ccccc2[S+]1[O-]` (stereo partly drawn) [Example 94, N-(cis-1S,2S-2-Hydroxycyclohexyl)-4-benzyl-1-oxo-4H-benzo[1,4]thiazine-2-carboxamide], the pEC50 was 5.86. In the case of `O=C(N[C@H]1CCCC[C@@H]1O)C1=CN(Cc2ccc(Cl)c(Cl)c2)c2ccccc2O1` [Example 26, N-(cis-1S, 2S-2-Hydroxycyclohexyl)-4-(3,4-dichlorobenzyl)-4H-benzo[1,4]oxazine-2-carboxamide], the pEC50 was 6.80. Compound `O=C(N[C@H]1CCCC[C@@H]1O)C1=CN(Cc2ccccn2)c2ccccc2O1` [Example 25, N-(cis-1S,2S-2-Hydroxycyclohexyl)-4-(pyridin-2-ylmethyl)-4H-benzo[1,4]oxazine-2-carboxamide] has a pEC50 of 6.04. In the case of `O=C(N[C@H]1CCCC[C@@H]1O)C1=CN(Cc2ccccc2F)c2c(F)ccc(F)c2O1` [Example 61, N-(cis-1S,2S-2-Hydroxycyclohexyl)-4-(2-fluorobenzyl)-5,8-difluoro-4H-benzo[1,4]oxazine-2-carboxamide], the pEC50 was 6.66. `Cn1ccc(-c2cc(CN3C=C(C(=O)N[C@H]4CCCC[C@@H]4O)Oc4ccccc43)ccn2)n1` [Example 59, N-(cis-1S,2S-2-Hydroxycyclohexyl)-4-[12-(1-methyl-1H-pyrazol-3-yl)-pyridin-4-ylmethyl]-4H-benzo[1,4]oxazine-2-carboxamide] was tested, and the pEC50 was 6.00. For `O=C(N[C@H]1CCCC[C@@H]1O)C1=CN(Cc2ccccc2)c2cccc(F)c2O1` [Example 48, N-(cis-1S,2S-2-Hydroxycyclohexyl)-4-benzyl-8-fluoro-4H-benzo[1,4]oxazine-2-carboxamide], the pEC50 was 6.84. `O=C(N[C@H]1CCCC[C@@H]1O)C1=CN(Cc2cccc(F)c2F)c2cccc(F)c2O1` [Example 29, N-(cis-1S,2S-2-Hydroxycyclohexyl)-4-(2,3-difluorobenzyl)-8-fluoro-4H-benzo[1,4]oxazine-2-carboxamide] showed a pEC50 of 6.85. In the case of `O=C(N[C@H]1CCCC[C@@H]1O)C1=CN(Cc2ccnc(-c3ccccc3)c2)c2cccc(F)c2O1` [Example 53, N-(cis-1S,2S-2-Hydroxycyclohexyl)-4-(2-phenylpyridin-4-ylmethyl)-8-fluoro-4H-benzo[1,4]oxazine-2-carboxamide], the pEC50 was 6.64. `COc1cc(CN2C=C(C(=O)NCC(C)(C)O)Oc3ccccc32)ccn1` [Example 12, N-(2-Hydroxy-2-methylpropyl)-4-(2-methoxypyridin-4-ylmethyl)-4H-benzo[1,4]oxazine-2-carboxamide] gave a pEC50 of 5.82. `O=C(Nc1ccccc1CO)C1=CN(Cc2ccccc2F)c2cccc(F)c2O1` [Example 46, N-(2-Hydroxymethylphenyl)-4-(2-fluorobenzyl)-8-fluoro-4H-benzo[1,4]oxazine-2-carboxamide] was tested, and the pEC50 was 5.96. For `COc1ccc(CN2C=C(C(=O)N[C@H]3CCCC[C@@H]3O)Sc3ccccc32)cc1` [Example 88, N-(cis-1S,2S-2-Hydroxycyclohexyl)-4-{4-methoxybenzyl}-4H-benzo[1,4]thiazine-2-carboxamide], the pEC50 was 6.84.
